Measured values taken from patent US6846840B2, “Cytotoxic N-unsubstituted indoles and cyclopent(B)indoles and method of making and using same” (Arizona Board of Regents acting for and on behalf of …, priority 1999, dated 2005).
Where two headings read alike, the source gives them in different places.

Assays:
[1] = tested on: B-16 melanoma; details: for area under the tumor-growth curve (AUC): control 11.39; for in vivo activity (effect on tumor mass), in words: B16 syngraft, dosing on days 1, 5, and 9 after implantation of 10^5 cells
Description: This compound was studied at three dose levels: 2, 3 and 5 mg/Kg IP on days 1, 5, and 9 after tumor implantation into the front flank muscle. Shown in the plot are the AUC values as a function of time for each dosage. The control was obtained with drug-free animals.

[2] = tested on: NSC LUNG cancer cell lines; details: log of concentration causing 50% lethality; arithmetic average of six to eight NSC lung cell lines
[3] = tested on: BREAST cancer cell lines; details: log of concentration causing 50% lethality; arithmetic average of six to eight breast cell lines
Description: (§1) For each histologic cancer type, the average −log LC50 value was determined from an NCI panel consisting of six to eight human cancer cell lines. {Paull, D. K.; Shoemaker, R. H.; Hodes, L.; Monks, A.; Scudiero, D. A.; Rubinstein, L.; Plowman, J.; Boyd, M. R. Display and Analysis of Differential Activity of Drugs Against Human Tumor Cell Lines: Development of Mean Graph and COMPARE Algorithm.

[4] = tested on: RENAL cancer cell lines; details: log of concentration causing 50% lethality; arithmetic average of six to eight renal cell lines
Description: as §1

[5] = tested on: PROSTATE cancer cell lines; details: log of concentration causing 50% lethality; arithmetic average of six to eight prostate cell lines
Description: as §1

[6] = tested on: LEUKEMIA cancer cell lines; details: log of concentration causing 50% lethality; arithmetic average of six to eight leukemia cell lines
[7] = tested on: MELANOMA cancer cell lines; details: log of concentration causing 50% lethality; arithmetic average of six to eight melanoma cell lines
[8] = tested on: CNS cancer cell lines; details: log of concentration causing 50% lethality; arithmetic average of six to eight CNS cell lines
[9] = tested on: OVARIAN cancer cell lines; details: log of concentration causing 50% lethality; arithmetic average of six to eight ovarian cell lines
Description: as §1

[10] = tested on: COLON cancer cell lines; details: log of concentration causing 50% lethality; arithmetic average of six to eight colon cell lines
[11] = target: T1, rat liver DT-diaphorase (Rattus norvegicus, UniProt P05982); details: FIG. 2
T1 sequence (P05982 2-274 limits assumed): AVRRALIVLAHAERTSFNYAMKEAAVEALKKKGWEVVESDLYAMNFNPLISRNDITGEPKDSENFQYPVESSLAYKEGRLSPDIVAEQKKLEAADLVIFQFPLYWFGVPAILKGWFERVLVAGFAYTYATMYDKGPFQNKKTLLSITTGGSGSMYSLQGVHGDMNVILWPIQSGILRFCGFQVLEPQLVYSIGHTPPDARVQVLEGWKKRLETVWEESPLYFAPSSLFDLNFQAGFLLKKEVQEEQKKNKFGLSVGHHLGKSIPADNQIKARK

[12] = tested on: 600 bp calf thymus DNA; experiment: Alkylation of DNA by reduced indoloquinones; details: FIG. 2
[13] = 1 mg/Kg IP on days 1, 5, and 9 after tumor implantation
[14] = 3 mg/Kg IP on days 1, 5, and 9 after tumor implantation

Row | Compound | area under the tumor-growth curve (AUC) [1, 13] | area under the tumor-growth curve (AUC) [1, 14] | in vivo activity (effect on tumor mass), in words [1] | Log LC50 [2] [moles/liter] | Log LC50 [3] [moles/liter] | Log LC50 [4] [moles/liter] | Log LC50 [5] [moles/liter] | Log LC50 [6] [moles/liter] | Log LC50 [7] [moles/liter] | Log LC50 [8] [moles/liter] | Log LC50 [9] [moles/liter] | Log LC50 [10] [moles/liter] | DT-diaphorase substrate activity, in words [11] | % reductive alkylation of DNA, in words [12]
1 | CC(=O)OCc1[nH]c2c(c1C)C(=O)C(N1CC1)=C(C)C2=O [Indole 1c, 2-(Acetoxymethyl)-5-aziridinyl-3,6-dimethylindole-4,7-dione] | 10.94 | 15.82 | decreased tumor mass only at the 3 mg/kg dose | −4.48 | −4.57 | −4.54 | −5.01 | >−4 | −5.64 | −4.83 | −4.46 | −5.08 |  | 
2 | CC1=C(N2CC2)C(=O)c2[nH]c3c(c2C1=O)CCC3O (centres unmarked) [Cyclopent[b]indole 3b, 6-Aziridinyl-1,4-Dihydro-3-hydroxy-7-methyl-(2H) cyclopent[b]indole-5,8-dione] |  |  |  | −4.22 | −4.47 | −4.73 | −4.5 | −4.06 | −4.85 | −4.54 | −4.05 | −4.45 |  | 
3 | COC1CCc2c1[nH]c1c2C(=O)C(C)=C(N2CC2)C1=O (centres unmarked) [Cyclopent[b]indole 3d, 6-Aziridinyl-1,4-dihydro-3-methoxy-7-methyl-(2H) cyclopent[b]indole-5,8-dione] |  |  |  | −4.2 | −4.33 | −4.58 | −4.46 | −4.06 | −4.92 | −4.17 | >−4 | −4.318 |  | 
4 | CC(=O)OC1CCc2c3c(n(C(C)=O)c21)C(=O)C(N1CC1)=C(C)C3=O (centres unmarked) [Cyclopent[b]indole 14, 3-Acetoxy-4-acetyl-6-aziridinyl-1,4-Dihydro-7-methyl-(2H) cyclopent[b]indole-5,8-dione] |  |  | enhances antitumor activity greatly | −4.42 | −4.5 | −4.78 | −4.71 | >−4 | −5.06 | −4.75 | −4.18 | −4.77 | excellent substrate for DT-diaphorase | readily alkylates DNA
5 | CC1=C(N2CC2)C(=O)c2c([nH]c(CO)c2C)C1=O [Indole 1b, 5-Aziridinyl-2-(hydroxymethyl)-3,6-dimethylindole-4,7-dione] |  |  |  | −4.37 | −4.56 | −4.53 | −4.78 | >−4 | −5.39 | >−4 | >−4 | −4.32 |  | 
6 | CC1=C(N2CC2)C(=O)c2[nH]c(CO)c(C)c2C1=O [Indole 2b, 6-Aziridinyl-2-(hydroxymethyl)-3,5-dimethylindole-4,7-dione] |  |  |  | −4.1 | −4.05 | −4.23 | −4.2 | >−4 | −4.4 | −4.05 | >−4 | −4.2 |  | 
7 | CC(=O)OCc1[nH]c2c(c1C)C(=O)C(C)=C(N1CC1)C2=O [Indole 2c, 2-(Acetoxymethyl)-6-aziridinyl-3,5-dimethylindole-4,7-dione] | 13.83 | 8.59 | inactive at both concentrations | −4.1 | >−4 | −4.14 | >−4 | >−4 | −4.15 | >−4 | >−4 | >−4 |  | 
8 | CC1=C(N2CC2)C(=O)c2[nH]c3c(c2C1=O)CCC3=O [Cyclopent[b]indole 3e, 6-Aziridinyl-1,4-dihydro-7-methyl-(2H) cyclopent [b]indole-3,5,8-trione] |  |  | completely inactive | −5.37 | −4.9 | −5.34 | −4.8 | >−4 | −5.99 | −5.13 | −4.86 | −5.44 |  | 
9 | CC1=C(N2CC2)C(=O)c2c([nH]c(C)c2C)C1=O [Indole 1a, 5-Aziridinyl-2,3,6-trimethylindole-4,7-dione] |  |  |  | −4.29 | >−4 | >−4 | >−4 | >−4 | −4.42 | >−4 | >−4 | >−4 |  | 
10 | CC(=O)OC1CCc2c1[nH]c1c2C(=O)C(C)=C(N2CC2)C1=O (centres unmarked) [Cyclopent[b]indole 3c, 3-Acetoxy-6-aziridinyl-1,4-dihydro-7-methyl-(2H) cyclopent [b]indole-5,8-dione] | 6.67 | 6.92 | reduce the tumor mass substantially | −4.65 | −4.53 | −4.72 | −4.63 | −4.3 | −4.99 | −4.7 | −4.366 | −4.85 |  | highest % alkylation of DNA
